# Data: US20050019825A9, “Common ligand mimics: pseudothiohydantoins” (priority 2002, published 2005)
# pIC50: −log10 of the molar value. Where “and” joins values, the source holds several entries; their conditions need not be identical. Equal entries are not always repeated.
# Molecular target: dihydrodipicolinate reductase (DHPR) (Escherichia coli, UniProt P04036)
# Assay: Screening of bi-ligands for DHPR (Example 25), kinetic assay at 340 nm
# Type: biochemical
# Details: bi-ligands, Example 25 (FIG. 7); substrate and NADPH near Km
# Procedure: Screening of Biligands for Binding to Dihydrodipicolinate Reductase (DHPR)
# This example describes the screening of bi-ligands having common ligand mimics for binding activity to dihydrodipicolinate reductase (DHPR).
# Bi-ligands were produced by the methods of Examples 16 to 18. The bi-ligands were screened for binding to DHPR.
# Stock solutions of each of the reagents were prepared in the following concentrations. Dilutions of the stock solutions were prepared prior to running the assay in the concentrations indicated below. Dilution of DHPR was prepared in 10 mM HEPES at a pH of 7.4. DHPS was not diluted and was stored in eppindorf tubes.
# The L-ASA solution was prepared in the following manner. 180 μM stock solution of ASA was prepared. 100 μl of the ASA stock was mixed with 150 μl of concentrated NaHCO3 and 375 μl of […]. For use in the assay, 28.8 mM L-ASA equal 625 μl of the solution. The L-ASA stock solution was kept at a temperature of −20° C. After dilution, the pH of the 28.8 mM solution was checked and maintained between 1 and 2.
# First, the DHPS reaction was monitored at 340 nm prior to and after addition of the inhibitor to detect background reaction with the inhibitor. The solution for background detection was a 945 μl solution containing 0.1 HEPES (pH 7.8), 1 mM pyruvate, 6 μM NADPH, 40 μM L-ASA, and 7 μl of 1 mg/ml DHPS at 25° C. in the volumes provided above. The sample solution was then mixed and incubated for 10 minutes. Next, 500 nM solutions of the inhibitors and enough DMSO to provide a final DMSO concentration of 5% were added. The solution was mixed and incubated for an additional 6 minutes.
# In DHPR samples, 5 μl of the diluted DHPR enzyme were added. The sample was mixed for 20 seconds and then the reaction was run for 10 minutes. After a 50 second lag, the samples were read in a Cary spectrophotometer at 340 nm. Reading of the samples was continued until 300 seconds. Cuvette #1 contained the control reaction (no inhibitor), and cuvette #2 contained the positive control reaction in which Cibacron Blue at 2.58 μM was substituted for inhibitor to yield 70 to 80% inhibition. The substrate and NADPH or NAHD were kept near their Km values.
# Chain of dihydrodipicolinate reductase (DHPR) (P04036 whole entry): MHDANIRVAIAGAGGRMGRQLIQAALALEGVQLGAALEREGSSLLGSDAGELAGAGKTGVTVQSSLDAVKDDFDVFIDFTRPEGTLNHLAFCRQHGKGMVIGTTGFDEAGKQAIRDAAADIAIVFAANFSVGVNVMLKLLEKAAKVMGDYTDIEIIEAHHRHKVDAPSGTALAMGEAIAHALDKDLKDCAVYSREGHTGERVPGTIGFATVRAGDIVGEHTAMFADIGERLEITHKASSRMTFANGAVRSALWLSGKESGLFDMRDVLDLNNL
row,SMILES,pIC50
1,"N=C1NC(=O)C(=Cc2ccc(C(=O)NCCSc3cc(C(=O)O)nc(C(=O)O)c3)cc2)S1 [compound 5c, 4-{2-[4-(2-imino-4-oxo-thiazolidin-5-ylidenemethyl)-benzoylamino]-ethylsulfanyl}-pyridine-2,6-dicarboxylic acid]",~4.48
2,"N=C1NC(=O)C(=Cc2ccc(O)c(C(=O)NCCSc3cc(C(=O)O)nc(C(=O)O)c3)c2)S1 [compound 5a, 4-{2-[2-hydroxy-5-(2-imino-4-oxo-thiazolidin-5-ylidenemethyl)-benzoylamino]-ethylsulfanyl}-pyridine-2,6-dicarboxylic acid]",~5.09 and ~4.81
3,"N=C1NC(=O)C(=Cc2cccc(C(=O)NCCSc3cc(C(=O)O)nc(C(=O)O)c3)c2)S1 [compound 5b, 4-{2-[3-(2-imino-4-oxo-thiazolidin-5-ylidenemethyl)-benzoylamino]-ethylsulfanyl}-pyridine-2,6-dicarboxylic acid]",~5.99
